# Columns and labels:
# [1] = Subchronic toxicity in ICR mice; format: in vivo
# Source text: The maximally tolerated dose (MTD) in the mouse was identified. […] Body weight changes and morbidity in treated animals were used as a direct measure of toxicity.
# CV-1 = experiment: Cell viability SRB assay, 96 h; format: cell-based; conditions: Cercopithecidae, CV-1 fibroblast cell line
# Experimental: Cells were plated in 96-well plates at a density of 800-5,000 cells/well, depending on the cell line, in their required growth media containing 10% fetal bovine serum. Preliminary studies were performed with each cell line using a variety of cell densities and incubation times to determine appropriate seeding densities. The compound of interest was dissolved in DMSO, diluted in cell culture medium (final DMSO concentration was less than 0.5% v/v), and added to quadruplicate wells at final concentrations ranging from 0 to 100 μM. Control wells to which only drug-free vehicle was added were included as negative controls.
# Cells were incubated for 96 hour at 37° C. in a humidified atmosphere containing 5% carbon dioxide.
# HT-29 = experiment: Cell viability SRB assay, 96 h; format: cell-based; conditions: Homo sapiens, HT-29, 96 h
# Procedure, shortened: (§1)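 Compound, dissolved in DMSO and diluted into culture medium, was added at final concentrations from 0 to 100 μM to cells plated at line-dependent densities. After a 96 hour incubation at 37° C, viable cells were quantified by sulforhodamine B staining.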
# MCF-7 = experiment: Cell viability SRB assay, 96 h; format: cell-based; conditions: Homo sapiens, MCF7; MCF-7, 96 h
# Procedure, shortened: as §1
# Tubulin proteins = experiment: Tubulin polymerization in vitro (absorbance 340 nm); format: biochemical; conditions: 20 μM, 37° C., 30 minutes
# Experimental: Cell viability (LNCaP, PC-3 prostate, DU145, PPC-1, and TSU-Pr1 prostate cancer cell lines, HT-29 colon cancer cell line, and MCF-7 breast cancer cell line) was quantitated using the sulforhodamine B (SRB) assay after 96 h coincubation with different concentrations of compound in 96-well plates. Cell viability of leukemia cells (K562 and doxorubicin-resistant K562/Dox) was quantitated by MTT assay after 96 h coincubation with different concentrations of compound in 96-well plates. Drug-induced apoptosis was determined by anti-histone ELISA assay and DNA laddering. Cell cycle progression was assessed by propidium iodide staining and fluorescence-activated cell sorting (FACS) analysis. In vitro tubulin polymerization assay was determined by CytoDYNAMIX ScreenTM3 (CDS-03) kits according to the manufacturer's instructions. […]
# Tubulin proteins (greater than 99% purity) were suspended (300 μg per sample) with 100 μl G-PEM buffer composed of 80 mM PIPES (piperazine-N,N′-bis(2-ethanesulfonic acid)), 2 mM MgCl2, 0.5 mM egtazic acid and 1.0 mM guanosine triphosphate (GTP), pH 6.9, plus 5% glycerol in the absence or presence of the compound 13 at 4° C. The sample mixture was transferred to the prewarmed 96-well plate and absorbance was detected each minute for 30 minutes at 340 nm at 37° C.
# LNCaP cells = experiment: Cell cycle distribution (PI staining, FACS); format: cell-based, human; conditions: LNCaP cells, 0, 50, 100 and 200 nM, 24 h
# Experimental: LNCaP cells were treated with 0, 50, 100 and 200 nM of compound 13 for 24 h (FIG. 11A). Cells were then harvested and fixed with 70% ethanol. Cell cycle distribution was determined by propidium iodide (P1) staining and analyzed by fluorescence-activated cell sorting (FACS) analysis.
# LNCaP and PC-3 cells [2] = experiment: DNA fragmentation by agarose gel electrophoresis; format: cell-based, human
# Experimental: LNCaP and PC-3 cells were treated with different concentrations of drugs for different periods of time. At the end of the incubation, both floating and adherent cells were collected. […] DNA was visualized by ethidium bromide staining and UV transillumination.
# LNCaP and PC-3 cells [3] = experiment: Anti-histone ELISA for apoptosis; format: cell-based, human; conditions: 100 nM; LNCaP 24 h, PC-3 48 h
# Experimental: Cell viability (LNCaP, PC-3 prostate, DU145, PPC-1, and TSU-Pr1 prostate cancer cell lines, HT-29 colon cancer cell line, and MCF-7 breast cancer cell line) was quantitated using the sulforhodamine B (SRB) assay after 96 h coincubation with different concentrations of compound in 96-well plates. Cell viability of leukemia cells (K562 and doxorubicin-resistant K562/Dox) was quantitated by MTT assay after 96 h coincubation with different concentrations of compound in 96-well plates. Drug-induced apoptosis was determined by anti-histone ELISA assay and DNA laddering. Cell cycle progression was assessed by propidium iodide staining and fluorescence-activated cell sorting (FACS) analysis. In vitro tubulin polymerization assay was determined by CytoDYNAMIX ScreenTM3 (CDS-03) kits according to the manufacturer's instructions. Anti-apoptosis protein (Bcl-2 and Bcl-xl) and pro-apoptosis protein (Bax) were examined in LNCaP and PC-3 after 24 h incubation with different concentrations of compound 13 by Western blot assay. In vivo PC-3 xenograft studies were conducted by i.v. dosing of 50 mg/kg, 100 mg/kg and 150 mg/kg for 2 weeks.
# 100 nM of compound 13 was incubated with LNCaP for 24 h and PC-3 for 48 h. […] The results are expressed as enrichment factor (Enrichment factor=OD of treated cells/OD from control cells). […]
# PC-3 xenografts = experiment: In vivo antitumor efficacy, PC-3 xenograft; conditions: for tumor growth inhibition: PC-3 xenograft, 2 days/week, 4 weeks
# MES-SA = experiment: Growth inhibition assay (96 h); format: cell-based; conditions: Homo sapiens, MES-SA (parental)
# Source text: (§2) MTT (3-(4,5-dimethylthiazol-2-yl)-2,5-diphenyltetrazolium bromide) assay was also used for the leukemia cell lines. […] Cells were stained with SRB solution or MTT solution.
# HEK293-pcDNA3-10 = experiment: Growth inhibition assay (96 h); format: cell-based, human; conditions: Homo sapiens, HEK293-pcDNA3-10 (control for BCRP)
# Source text: as §2
# tubulin [4] = tested on: T1, tubulin; experiment: In vitro binding assay by spin column; design: species or system bovine; conditions: vinblastine-binding site, 37° C., 1 h
# T1 construct: IC50 of microtubule formation (tubulin polymerization); other: cell free, turbidity 340 nm, 40 min
# tubulin [5] = experiment: In vitro binding assay by spin column; design: species or system bovine; conditions: colchicine-binding site, 37° C., 1 h
# LNCaP = experiment: Growth inhibition assay (SRB, 96 h); format: cell-based; conditions: Homo sapiens
# Source text: as §2
# K562 = experiment: Growth inhibition assay (MTT, 96 h); format: cell-based; conditions: Homo sapiens, K562 (parental)
# Source text: as §2
# [6] = tested on: MDR cell lines with high levels of P-gp, MRP1, MRP2, or BCRP; experiment: Cytotoxicity assay using MDR cell lines; format: cell-based, human; conditions: MRP1, MRP2, BCRP over-expressing cells
# Source text: as §2
# Since ABC transporters are thought to be one of the major causes of MDR of anticancer drugs, the antitumoral efficacy of 68 was compared with other anticancer drugs in a cytotoxicity assay using MDR cell lines with high levels of P-gp, MRP1, MRP2, or BCRP (Table 1). […] In contrast, the cytotoxicity efficacy of 68 against cancer cells was unaltered by the MDR phenotypes.
Compound,"tolerability ([1]; 50, 100 and 200 mg/kg S.C., 4 weeks, 5-days on/2 days off)","morbidity or rate of gain in body weight vs control ([1]; 50 or 100 mg/kg S.C., 4 weeks)","less body weight gain as compared to control animals ([1]; highest dose (200 mg/kg) S.C., 4-week treatment)",IC50 (CV-1),IC50 (HT-29),IC50 (MCF-7),effect on tubulin polymerization (Tubulin proteins),cell cycle arrest (LNCaP cells),DNA fragmentation (LNCaP and PC-3 cells [2]),apoptosis by anti-histone ELISA (LNCaP and PC-3 cells [3]),"tolerability (PC-3 xenografts; PC-3 xenograft mice, 5 and 10 mg/kg twice weekly)",tumor growth inhibition (PC-3 xenografts; 5 mg/kg i.p.),tumor growth inhibition (PC-3 xenografts; 10 mg/kg i.p.),IC50 (MES-SA),IC50 (HEK293-pcDNA3-10),displacement of [3H]vinblastine from tubulin (tubulin [4]),[3H]podophyllotoxin binding to tubulin (tubulin [5]),IC50 (LNCaP),IC50 (K562),cytotoxicity efficacy against cancer cells with MDR phenotypes [6]
"O=C(c1cccc(-c2cc3ccccc3[nH]2)c1)c1cc2ccccc2[nH]1 [Compound 13, (1H-indol-2-yl)-[3-(1H-indol-2-yl)phenyl]methanone]",generally well tolerated,no significant difference,20%,78.3 ± 35 nM,62 nM,162 nM,completely block,induces G2/M phase arrest,induced DNA fragmentation,detected apoptosis,–,–,–,–,–,–,–,–,–,–
"COc1cc(C(=O)c2cccc(-c3cc4ccccc4[nH]3)c2)cc(OC)c1OC [Compound 68, [3-(1H-Indol-2-yl)-phenyl]-(3,4,5-trimethoxy-phenyl)-methanone]",–,–,–,–,–,–,–,–,–,–,well tolerated,36%,68%,31.5 ± 2.9 nM,13.5 ± 1.6 nM,not able to displace,inhibited,30.9 ± 3.5 nM,23.6 ± 2.4 nM,unaltered
